Columns and labels:
[1] = test system: cloned mammalian (mSlo or hSlo) BK channel; assay: Assay for BK channel openers: two-electrode voltage clamp of BK-mediated outward current in Xenopus oocytes; assay type: cell-based; details: percent increase over BK current in controls, voltage step to +140 mV, IBTX-sensitive current
Procedure: The ability of the compounds of the invention to open BK channels and increase whole-cell outward (K^+) BK-mediated currents was assessed under voltage-clamp conditions by determining their ability to increase cloned mammalian (mSlo or hSlo) BK-mediated outward current heterologously expressed in Xenopus oocytes [Butler, A., et al., Science 1993, 261, 221–224; Dworetzky, S. I., et al., Mol. Brain Res. 1994, 27, 189–193; Gribkoff, V. K., et al., Mol. Pharmacol. 1996, 50, 206–217]. The two BK constructs employed represent nearly structurally identical homologous proteins, and have proven to be pharmacologically indistinguishable in our tests. To isolate BK current from native (background, non-BK) current, the specific and potent BK channel-blocking toxin iberiotoxin (IBTX) [Galvez, A., et al., J. Biol. Chem. 1990, 265, 11083–11090] was employed at a supramaximal concentration, e.g., 50–100 nanomolar (“nM”). The relative contribution of BK channel-mediated current to total outward current was determined by subtraction of the current remaining in the presence of IBTX (non-BK current) from the current profiles obtained in all other experimental conditions (control, drug, and wash) [Gribkoff, V. K. et al., Mol. Pharmacol. 1996, 50, 206–217]. […] All compounds were tested in 5–10 oocytes and are reported at the indicated concentration of 20 micromolar (“μM”) (or as otherwise indicated); the effect of the selected compounds of the invention on BK current was expressed as the percent of control IBTX-sensitive current at a single transmembrane voltage (+140 mV) and is listed in Table 1. Recordings were accomplished using standard two-electrode voltage clamp techniques [Stuhmer, W., et al., Methods in Enzymology, 1992, 207, 319–339]; voltage-clamp protocols consisted of 500–750 milliseconds (“ms”) duration step depolarizations, from a holding potential of −60 mV, to a final voltage up to +140 mV in 20 mV steps. The experimental media (modified Barth's solution) consisted of millimolar (“mM”): NaCl (88), NaHCO3 (2.4), KCl (1.0), HEPES (10), MgSO4 (0.82), Ca(NO3)2 (0.33), CaCl2 (0.41); pH 7.5.

[2] = test system: rat small intestine tissue; assay: Relaxation of rat small intestine (ileum) segments; design: concentration or dose not given beside the values; details: integral of nifedipine-sensitive force, 30 min post-compound addition
Excerpt: The ability of the compounds of the invention to relax rat small intestine tissue as a model for the treatment of irritable bowel syndrome is described as follows. Male rats (Harlan, Sprague Dawley, 250–350 g) were sacrificed by decapitation. A portion of small intestine (ileum) was removed and the attached connective tissues and intestinal contents removed. The ileum was cut into segments of ≦1 cm in length. The segments were mounted longitudinally between fixed hooks in organ baths containing warm (37° C.) physiological salt solution (composition in mM: NaCl 118.4, KCl 4.7, KH2PO4 1.2, MgSO4 1.2, CaCl2 1.8, Glucose 10.1, NaHCO3 25; gassed with 95% O2/5% CO2, pH 7.4). A stable tension of ˜1.5 g was maintained in the tissue segments during the equilibration period of 45 minutes. Changes in muscle tension were measured with isometric force transducers (Grass, FT-03C) and recorded using AcqKnowledge data acquisition system (AcqKnowledge for MP100WS, Biopac Systems Inc., Goleta, Calif.). Compound or vehicle was added in the baths for 30 minutes. “Zero” active force was established at the end of the experiment using nifedipine (20 μM). The effects of compounds or vehicle on force was determined by measuring the integral of nifedipine-sensitive force (including resting tone and spontaneous contractions) pre- and 30 min post-compound (or vehicle) addition. Results are expressed as the percentage inhibition of force. DMSO vehicle inhibited force (integral) by −0.6±3.0% (n=25).

[3] = test system: rabbit corpus cavernosum tissue; assay: Relaxation of rabbit corpus cavernosum strips precontracted with phenylephrine; details: Oryctolagus cuniculus; inhibition of phenylephrine (3 μM)-induced force as compared to vehicle control; read-out: % Inhibition of force (RCC strips)
Procedure: The ability of the compounds of the invention to relax rabbit corpus cavernosum tissue as a model for the treatment of erectile dysfunction is described as follows. New Zealand white rabbits (3.4–3.7 kg) were euthanized by sodium pentobarbital (100 mg/kg) overdose. The penis from each animal was rapidly removed and immersed in a cold oxygenated modified Krebs Henseleit bicarbonate buffer. The penis' outer tunica was removed and the corpus cavernosum smooth muscle obtained and cut into strips approximately 3–5 mm long. The strips were suspended in tissue baths containing physiological salt solution (see above), and allowed to equilibrate for at least one hour under resting tension of 1.0 gram. Isometric force was measured as described above. Tissue strips were stimulated with the α-agonist phenylephrine (3 μM) and allowed to reach a steady level of force prior to the addition of test compounds. The results are expressed as the percentage inhibition of phenylephrine-induced force as compared to vehicle control.

Row | SMILES | % MaxiK opening ([1]; at 20 μM) [%] | % Inhibition of force (RSI strips) [2] [%] | inhibition [3] [%] | % MaxiK opening ([1]; at 1 μM) | % MaxiK opening ([1]; at 10 μM)
1 | CN(C)CCN(C)CC(=O)Nc1ccc(Sc2c(-c3cc(Cl)ccc3O)c3cc(C(F)(F)F)ccc3[nH]c2=O)cc1 [Example 7, N-[4-[[4-(5-chloro-2-hydroxyphenyl)-1,2-dihydro-2-oxo-6-(trifluoromethyl)-3-quinolinyl]thio]phenyl]-2-[[2-(dimethylamino)ethyl]methylamino]acetamide] | 231 | 41 | 16 |  | 
2 | O=C(CCCN1CCN(c2ccccn2)CC1)Nc1ccc(Sc2c(-c3cc(Cl)ccc3O)c3cc(C(F)(F)F)ccc3[nH]c2=O)cc1 [Example 16, N-[4-[[4-(5-chloro-2-hydroxyphenyl)-1,2-dihydro-2-oxo-6-(trifluoromethyl)-3-quinolinyl]thio]phenyl]-4-(2-pyridinyl)-1-piperazinebutanamide] |  |  | 37 | 197^⋄ % | 
3 | O=C(CN1CCCC1)Nc1ccc(Sc2c(-c3cc(Cl)ccc3O)c3cc(C(F)(F)F)ccc3[nH]c2=O)cc1 [Example 6, N-[4-[[4-(5-chloro-2-hydroxyphenyl)-1,2-dihydro-2-oxo-6-(trifluoromethyl)-3-quinolinyl]thio]phenyl]-1-pyrrolidineacetamide] | 291 |  | 28 |  | 
4 | O=C(CCN1CCN(c2ccccn2)CC1)Nc1ccc(Sc2c(-c3cc(Cl)ccc3O)c3cc(C(F)(F)F)ccc3[nH]c2=O)cc1 [Example 14, N-[4-[[4-(5-chloro-2-hydroxyphenyl)-1,2-dihydro-2-oxo-6-(trifluoromethyl)-3-quinolinyl]thio]phenyl]-4-(2-pyridinyl)-1-piperazinepropanamide] |  | 24 | 37 | 169^⋄ % | 
5 | O=C(CCCN1CCCC1)Nc1ccc(Sc2c(-c3cc(Cl)ccc3O)c3cc(C(F)(F)F)ccc3[nH]c2=O)cc1 [Example 5, N-{4-[4-(5-Chloro-2-hydroxy-phenyl)-2-oxo-6-trifluoromethyl-1,2-dihydro-quinolin-3-ylsulfanyl]-phenyl}-4-pyrrolidin-1-yl-butyramide] | 280 | 65 | 36 |  | 
6 | O=C(CCN1CCCC1)Nc1ccc(Sc2c(-c3cc(Cl)ccc3O)c3cc(C(F)(F)F)ccc3[nH]c2=O)cc1 [Example 4, N-{4-[4-(5-Chloro-2-hydroxy-phenyl)-2-oxo-6-trifluoromethyl-1,2-dihydro-quinolin-3-ylsulfanyl]-phenyl}-3-pyrrolidin-1-yl-propionamide] | 264 |  | 35 |  | 
7 | CN(C)C1CCN(CC(=O)Nc2ccc(Sc3c(-c4cc(Cl)ccc4O)c4cc(C(F)(F)F)ccc4[nH]c3=O)cc2)CC1 [Example 10, N-[4-[[4-(5-chloro-2-hydroxyphenyl)-1,2-dihydro-2-oxo-6-(trifluoromethyl)-3-quinolinyl]thio]phenyl]-4-(dimethylamino)-1-piperidineacetamide] | 292 | 54 | 19 |  | 
8 | O=C(CCN1CCC(N2CCCCC2)CC1)Nc1ccc(Sc2c(-c3cc(Cl)ccc3O)c3cc(C(F)(F)F)ccc3[nH]c2=O)cc1 [Example 13, N-[4-[[4-(5-chloro-2-hydroxyphenyl)-1,2-dihydro-2-oxo-6-(trifluoromethyl)-3-quinolinyl]thio]phenyl]-[1,4′-bipiperidine]-1′-propanamide] | 255 | 78 | 23 |  | 
9 | O=C(CN1CCOCC1)Nc1ccc(Sc2c(-c3cc(Cl)ccc3O)c3cc(C(F)(F)F)ccc3[nH]c2=O)cc1 [Example 1, N-{4-[4-(5-Chloro-2-hydroxy-phenyl)-2-oxo-6-trifluoromethyl-1,2-dihydro-quinolin-3-ylsulfanyl]-phenyl}-2-morpholin-4-yl-acetamide] |  | 51 | 34 | 296^⋄ % | 
10 | O=C(CN1CCN(c2ccccn2)CC1)Nc1ccc(Sc2c(-c3cc(Cl)ccc3O)c3cc(C(F)(F)F)ccc3[nH]c2=O)cc1 [Example 9, N-[4-[[4-(5-chloro-2-hydroxyphenyl)-1,2-dihydro-2-oxo-6-(trifluoromethyl)-3-quinolinyl]thio]phenyl]-4-(2-pyridinyl)-1-piperazineacetamide] |  |  | 17 |  | 116^⋄⋄ %
11 | O=C(CN1CCC(N2CCCCC2)CC1)Nc1ccc(Sc2c(-c3cc(Cl)ccc3O)c3cc(C(F)(F)F)ccc3[nH]c2=O)cc1 [Example 8, N-[4-[[4-(5-chloro-2-hydroxyphenyl)-1,2-dihydro-2-oxo-6-(trifluoromethyl)-3-quinolinyl]thio]phenyl]-[1,4′-bipiperidine]-1′-acetamide] | 283 |  | 45 |  | 
12 | CN1CCN(CC(=O)Nc2ccc(Sc3c(-c4cc(Cl)ccc4O)c4cc(C(F)(F)F)ccc4[nH]c3=O)cc2)CC1 [Example 2, N-{4-[4-(5-Chloro-2-hydroxy-phenyl)-2-oxo-6-trifluoromethyl-1,2-dihydro-quinolin-3-ylsulfanyl]-phenyl}-2-(4-methyl-piperazin-1-yl)-acetamide] | 246 | 36 | 19 |  | 
13 | O=C(CCCN1CCC(N2CCCCC2)CC1)Nc1ccc(Sc2c(-c3cc(Cl)ccc3O)c3cc(C(F)(F)F)ccc3[nH]c2=O)cc1 [Example 15, N-[4-[[4-(5-chloro-2-hydroxyphenyl)-1,2-dihydro-2-oxo-6-(trifluoromethyl)-3-quinolinyl]thio]phenyl]-[1,4′-bipiperidine]-1′-butanamide] | 268 |  |  |  | 
14 | O=C(CCN1CCOCC1)Nc1ccc(Sc2c(-c3cc(Cl)ccc3O)c3cc(C(F)(F)F)ccc3[nH]c2=O)cc1 [Example 3, N-{4-[4-(5-Chloro-2-hydroxy-phenyl)-2-oxo-6-trifluoromethyl-1,2-dihydro-quinolin-3-ylsulfanyl]-phenyl}-3-morpholin-4-yl-propionamide] | 453 | 50 | 22 |  | 
15 | CN(C)CCN(C)CCC(=O)Nc1ccc(Sc2c(-c3cc(Cl)ccc3O)c3cc(C(F)(F)F)ccc3[nH]c2=O)cc1 [Example 12, N-[4-[[4-(5-chloro-2-hydroxyphenyl)-1,2-dihydro-2-oxo-6-(trifluoromethyl)-3-quinolinyl]thio]phenyl]-3-[[2-(dimethylamino)ethyl]methylamino]propanamide] | 489 |  | 29 |  | 

Source: patent US7132542B2, “Compounds for the treatment of male erectile dysfunction” (Bristol-Myers Squibb Company, priority 2003, dated 2006)
